Patent US8637511B2, “Aminopyrimidines useful as kinase inhibitors” (Vertex Pharmaceuticals Incorporated, priority 2005, dated 2014)
pIC50, pKi: −log10 of the molar value. Values joined by “and” are separate entries in the source; they are usually repeats but may differ in a detail not shown here. Equal values may be shown once. Read-outs that look alike come from different tables or passages of the source.

Assays:
Colo205 cells = assay: Analysis of cell proliferation and viability; assay type: cell-based; conditions: Homo sapiens, read-out: IC50 value
Protocol: Colo205 cells were seeded in 96 well plates and serially diluted compound was added to the wells in duplicate. Control groups included untreated cells, the compound diluent (0.1% DMSO alone) and culture medium without cells.
To measure proliferation, 3 h prior to the end of the experiment 0.5 μCi of 3H thymidine was added to each well. Cells were then harvested and the incorporated radioactivity counted on a Wallac microplate beta-counter. Cell viability was assessed using Promega CellTiter 96AQ to measure MTS conversion. Dose response curves were calculated using either Prism 3.0 (GraphPad) or SoftMax Pro 4.3.1 LS (Molecular Devices) software.

Aurora-2 (Aurora A) = biological target: T1, Aurora-2 (Aurora A) (Homo sapiens, UniProt O14965); assay: Aurora-2 (Aurora A) inhibition assay, coupled enzyme; assay type: biochemical; conditions: read-out: Aurora A kinase Ki value
T1 sequence (O14965 1-403): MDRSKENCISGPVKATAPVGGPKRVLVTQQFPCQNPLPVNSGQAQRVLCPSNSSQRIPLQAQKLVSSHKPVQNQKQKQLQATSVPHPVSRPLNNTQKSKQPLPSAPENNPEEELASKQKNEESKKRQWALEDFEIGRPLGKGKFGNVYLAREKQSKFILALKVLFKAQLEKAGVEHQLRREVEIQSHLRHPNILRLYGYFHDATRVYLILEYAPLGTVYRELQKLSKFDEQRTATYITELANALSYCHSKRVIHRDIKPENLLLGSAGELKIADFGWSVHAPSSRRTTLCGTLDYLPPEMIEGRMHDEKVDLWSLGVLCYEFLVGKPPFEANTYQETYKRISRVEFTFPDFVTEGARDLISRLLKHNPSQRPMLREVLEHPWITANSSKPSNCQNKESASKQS
Protocol: Assays were carried out in a mixture of 100 mM Hepes (pH7.5), 10 mM MgCl2, 1 mM DTT, 25 mM NaCl, 2.5 mM phosphoenolpyruvate, 300 μM NADH, 30 μg/ml pyruvate kinase and 10 μg/ml lactate dehydrogenase. […] Assays were carried out at 30° C. and in the presence of 40 nM Aurora-2.
The plate was preincubated for 10 minutes at 30° C. and the reaction initiated by addition of 10 μl of Aurora-2. Initial reaction rates were determined with a Molecular Devices SpectraMax Plus plate reader over a 10 minute time course. IC50 and Ki data were calculated from non-linear regression analysis using the Prism software package (GraphPad Prism version 3.0cx for Macintosh, GraphPad Software, San Diego Calif., USA).

Aurora-1 (Aurora B) = Aurora-1 (Aurora B) (Homo sapiens, UniProt Q96GD4); assay: Aurora-1 (Aurora B) inhibition assay (radiometric); assay type: biochemical; conditions: read-out: Aurora B kinase Ki value
Protocol: An assay buffer solution was prepared which consisted of 25 mM HEPES (pH 7.5), 10 mM MgCl2, 0.1% BSA and 10% glycerol. […] To 22 μL of the Aurora-B solution, in a 96-well plate, was added 2 μl of a compound stock solution in DMSO and the mixture allowed to equilibrate for 10 minutes at 25° C. The enzyme reaction was initiated by the addition of 16 μl stock [γ-^33P]-ATP solution (˜20 nCi/μL) prepared in assay buffer, to a final assay concentration of 800 μM. The reaction was stopped after 3 hours by the addition of 16 μL 500 mM phosphoric acid and the levels of ^33P incorporation into the peptide substrate were determined by the following method.
A phosphocellulose 96-well plate (Millipore, Cat no. MAPHNOB50) was pre-treated with 100 μL of a 100 mM phosphoric acid prior to the addition of the enzyme reaction mixture (40 μL). The solution was left to soak on to the phosphocellulose membrane for 30 minutes and the plate subsequently washed four times with 200 μL of a 100 mM phosphoric acid. […] Levels of non-enzyme catalyzed background radioactivity were determined by adding 16 μL of the 500 mM phosphoric acid to control wells, containing all assay components (which acts to denature the enzyme), prior to the addition of the [γ-^33P]-ATP solution. Levels of enzyme catalyzed. ^33P incorporation were calculated by subtracting mean background counts from those measured at each inhibitor concentration. […] Ki values were calculated from initial rate data by non-linear regression using the Prism software package (Prism 3.0, Graphpad Software, San Diego, Calif.).

[1] = COLO 205, Colo205 cells, incubated for 96 hours
[2] = COLO 205, Colo205 cells, incubated for 72 hours

Chain of Aurora-1 (Aurora B) (Q96GD4 whole entry): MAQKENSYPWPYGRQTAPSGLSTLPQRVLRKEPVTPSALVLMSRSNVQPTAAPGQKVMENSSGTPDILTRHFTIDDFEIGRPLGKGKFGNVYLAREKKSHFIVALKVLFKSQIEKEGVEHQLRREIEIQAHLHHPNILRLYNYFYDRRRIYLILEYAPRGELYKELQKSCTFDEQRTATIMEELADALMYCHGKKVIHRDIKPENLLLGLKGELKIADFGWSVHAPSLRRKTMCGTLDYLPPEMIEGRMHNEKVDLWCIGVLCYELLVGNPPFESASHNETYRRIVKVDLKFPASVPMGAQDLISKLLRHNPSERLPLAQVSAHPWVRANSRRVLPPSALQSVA

Compound | pIC50 (Colo205 cells; [1]) | pKi (Aurora-2 (Aurora A)) | pKi (Aurora-1 (Aurora B)) | pIC50 (Colo205 cells; [2]) | pIC50 (Colo205 cells; COLO 205, 72 h) | pIC50 (Colo205 cells; COLO 205, 96 h)
CCC(=O)Nc1ccc(Sc2nc(Nc3cc(C)n[nH]3)cc(N3CC(O)(c4ccccc4)C3)n2)cc1 [Compound 86] | 6.00 to 7.30 | ≥ 9.00 | ≥ 8.00 |  |  | 
Cc1cc(Nc2cc(N3CCC3)nc(Sc3ccc(NC(=O)Cc4ccc(Cl)cc4)cc3)n2)n[nH]1 [Compound 36] | 6.00 to 7.30 | ≥ 9.00 | 7.30 to 8.00 and > 7.60 |  |  | 
Cc1cc(Nc2cc(N3CCC3)nc(Sc3ccc(NC(=O)c4ncccc4C)cc3)n2)[nH]n1 [Compound 200] |  | 6.70 to 8.30 | 5.70 to 7.30 | < 6.70 |  | 
Cc1cc(Nc2cc(N3CCC3)nc(Sc3ccc(-n4ccccc4=O)cc3)n2)[nH]n1 [Compound 47] | < 6.00 | 6.70 to 8.30 | 5.70 to 7.30 |  |  | 
COC(=O)c1ccc(Sc2nc(Nc3cc(C4CC4)[nH]n3)cc(N3CC(O)(C4CC4)C3)n2)cc1 [Compound 106] | 6.00 to 7.30 | ≥ 9.00 | ≥ 8.00 |  |  | 
CCN(C)C(=O)c1ccc(Sc2nc(Nc3cc(C)[nH]n3)cc(N3CC(O)(C4CC4)C3)n2)cc1 [Compound 125] |  | 8.30 to 9.00 | 5.70 to 7.30 | < 6.70 |  | 
CCC(=O)Nc1ccc(Sc2nc(Nc3cc(C)[nH]n3)cc(N3CC(F)(C4CC4)C3)n2)cc1 [Compound 147] |  | 8.30 to 9.00 |  |  | 6.70 to 7.52 | 
CCC(=O)Nc1ccc(Sc2nc(Nc3cc(C)n[nH]3)cc(N3CC(O)(c4ccccc4C)C3)n2)cc1 [Compound 93] | 6.00 to 7.30 | ≥ 9.00 | 5.70 to 7.30 |  |  | 
CCN(CC)C(=O)Nc1ccc(Sc2nc(Nc3cc(C)[nH]n3)cc(N3CCC3)n2)cc1 [Compound 72] | < 6.00 | 6.70 to 8.30 | 5.70 to 7.30 |  |  | 
Cc1cc(Nc2cc(N3CC(F)(C4CC4)C3)nc(Sc3ccc(NC(=O)CCC(F)(F)F)cc3)n2)[nH]n1 [Compound 157] |  |  |  |  | ≥ 7.52 | ≥ 7.30
Cc1cc(Nc2cc(N3CC(O)(C4CC4)C3)nc(Sc3ccc4nc(C)ccc4c3)n2)[nH]n1 [Compound 153] | ≥ 7.30 | ≥ 9.00 | ≥ 8.00 |  |  | 
CCC(=O)Nc1ccc(Sc2nc(CCN3CCC3)cc(Nc3cc(C)n[nH]3)n2)cc1 [Compound 197] |  | 6.70 to 8.30 | 5.70 to 7.30 | < 6.70 |  | 
CC(=O)OC1(C2CC2)CN(c2cc(Nc3cc(C)n[nH]3)nc(Sc3ccc(NC(=O)C4CC4)cc3)n2)C1 [Compound 107] | ≥ 7.30 | ≥ 9.00 | 7.30 to 8.00 |  |  | 
CCOc1ccc(Sc2nc(Nc3cc(C)n[nH]3)cc(N3CC(C(=O)N4CCCC4)C3)n2)cc1 [Compound 141] |  | 8.30 to 9.00 | 5.70 to 7.30 | < 6.70 |  | 
COC1(C2CC2)CN(c2cc(Nc3cc(C)[nH]n3)nc(Sc3ccc(NC(=O)C4CC4)cc3)n2)C1 [Compound 118] |  | ≥ 9.00 | ≥ 8.00 | ≥ 7.52 |  | 
CCOP(=O)(O)OC1(C)CN(c2cc(Nc3cc(C)n[nH]3)nc(Sc3ccc(NC(=O)c4ccccc4C(F)(F)F)cc3)n2)C1 [Compound 129] |  | ≥ 9.00 | ≥ 8.00 | < 6.70 |  | 
Cc1cc(Nc2cc(N3CCC3)nc(Sc3ccc(NC(=O)c4cc(F)ccc4F)cc3)n2)n[nH]1 [Compound 45] | 6.00 to 7.30 |  | 7.30 to 8.00 |  |  | 
Cc1cc(Nc2cc(N3CC(F)(C4CC4)C3)nc(Sc3ccc4c(c3)N(C)C(C(F)(F)F)N4)n2)[nH]n1 (stereo not shown) [Compound 156] | 6.00 to 7.30 | ≥ 9.00 | 7.30 to 8.00 and > 7.60 | 6.70 to 7.52 |  | 
Cc1cc(Nc2cc(NCC3(C)COC3)nc(Sc3ccc(NC(=O)c4ccccc4Cl)cc3)n2)[nH]n1 [Compound 208] |  | ≥ 9.00 | ≥ 8.00 | 6.70 to 7.52 |  | 
COc1cccc(C(=O)Nc2ccc(Sc3nc(Nc4cc(C)n[nH]4)cc(N4CCC4)n3)cc2)c1 [Compound 116] |  |  |  | < 6.70 |  | 
Cc1cc(Nc2cc(N3CCC3)nc(Sc3ccc(NC(=O)c4ccccc4Cl)nc3)n2)[nH]n1 [Compound 207] |  | 8.30 to 9.00 |  | < 6.70 |  | 
